Data taken from patent US10266564B2, “Cationic lipid cordiarimide hybrid compounds and a process for preparation thereof” (COUNCIL OF SCIENTIFIC & INDUSTRIAL RESEARCH, priority 2014, dated 2019).
Entries after “also recorded” stand apart in the source; their conditions may differ.

Key:
[1] = test system: PC-3 (human prostate cancer cells); assay: MTT assay for cell viability, PC-3; format: cell-based; conditions: Homo sapiens, 48 h
Description: (§1) The human cancer cell lines e.g. HepG2 (hepatocellular carcinoma, ATCC® HB-8065™), PC-3 (human prostate cancer cells, ATCC® CRL-1435™), MCF-7 (breast adenocarcinoma, ATCC® […]), and mouse embryo fibroblasts (NIH/3T3, ATCC® CRL-1658™), used in the present study were obtained from the ATCC (American Type Culture Collection, USA and maintained in RPMI 1640 (Roswell Park Memorial Institute, Merck) with 10% FBS (Merck), supplemented with 1% antibiotic and antimycotic solution (Gibco, USA) at 37° C. in a humidified incubator with 5% CO2. All stock solutions of the compounds were prepared in cell culture grade DMSO (dimethyl sulfoxide) and stored at −20° C. Compounds were diluted in culture media prior to use in experiments. Annexin V-FITC apoptosis detection kits were purchased from Calbiochem. MTT dye was procured from Sigma-Aldrich. All the flow cytometry experiments were performed using a FACScan (Becton Dickinson, Mountain View, Calif.) flow cytometer, equipped with a single 488 nm argon laser.
(§2) Cell viability was assessed by MTT assay, which is based on the reduction of MTT by mitochondrial dehydrogenases of viable cells to form a purple formazan product. Briefly, cells (5-6×10^3/well) were plated in 96 well plates. After incubating overnight, the cells were treated with […] different concentrations (100, 50, 20, 10, 5, 2.5, 1.25 μM) in triplicates with the cationic lipidated cordiarimide and intermediates for 48 h. Subsequently, 10 μL of MTT (10 mg/mL) was added to each well and incubated for 3 h. The MTT formazan formed by viable cells was dissolved in 100 μL of DMSO and shaken for 10 min. The absorbance was measured on an ELISA reader. Each test was repeated at least three times. The concentration of the compound which gives the 50% growth inhibition value corresponding to IC50, was calculated using GraphPad prism 5 software. In the present invention we have screened 26 lipidated cordiarimides and the results are described in table 1.

[2] = test system: HepG2 (hepatocellular carcinoma); assay: MTT assay for cell viability, HepG2; format: cell-based, human; conditions: Homo sapiens, HepG2, 48 h
Description: as §1, §2

[3] = test system: MCF-7 (breast adenocarcinoma); assay: MTT assay for cell viability, MCF-7; format: cell-based, human; conditions: Homo sapiens, MCF7, 48 h
Description: as §1, §2

[4] = test system: mouse embryo fibroblasts (NIH/3T3); assay: MTT assay for cell viability, NIH/3T3; format: cell-based; conditions: NIH3T3, 48 h
Description: as §1, §2

[5] = target: human ligase I (Homo sapiens, UniProt P18858); assay: Ligation assay, DNA ligase I; format: biochemical; conditions: screening, FIG. 4 and FIG. 7
Excerpt: The ligation assay was done strictly following the assay protocol described in Xi Chen et. al, Cancer Res 2008; 68(9):3169-3177. The DNA molecules 52 mer (5′-3′), 28-mer (5′-3′) and 34-mer (5′-3′) were used to construct a double stranded nicked substrate for the ligase enzyme (FIG. 4). The 34-mer oligo was labelled with 32P-AMP to form a substrate for ligase and to form a ligase-AMP intermediate. During ligation, the ligase would transfer the AMP to the nick forming a phosphodiester bond and seal the nick. The ligated DNA molecule would be larger in size and run higher up on a 7% Urea-containing denaturing acrylamide gel. If an inhibitor is added to the reaction mixture prior to the addition of ligase, this would lead to an inhibition of ligation and a corresponding loss of labelled ligated product in the gel. We would then be able to calculate the percentage of inhibition of ligation by estimating the amount of ligated product in the lane with no inhibitor and comparing it with the lanes containing different inhibitor molecules or with the same inhibitor molecule at different concentrations.

[6] = test system: HepG2, NH/3T3, PC-3, MCF-7 cell lines; assay: MTT assay, summary over the cell line panel; format: cell-based; conditions: across tested cell lines
Description: as §1, §2

[7] = test system: HepG2 cells; assay: Apoptosis, annexin V/PI staining by flow cytometry; format: cell-based, human; conditions: HepG2, 24 h
Description: Quantitation of apoptotic cells by annexin V staining was carried out according to the manufacturer's instructions. Briefly, cells (5×10^5 cells/well) were seeded in 6 well plates and treated with 5 μM of 8h-8k for 24 h. After incubation, cells were washed with PBS and stained with 1.25 μL of annexin V-FITC and 10 μL of media binding reagent and incubated for 20 min. After that 10 μL of PI was added and samples were analyzed using a flow cytometer. Annexin V-FITC was analyzed using excitation and emission settings of 488 nm and 535 nm (FL-1 channel); PI, 488 nm and 610 nm (FL-2 channel). Debris and clumps were gated out using forward and orthogonal light scatter. Each experiment was repeated two times independently. Results are illustrated in FIG. 1 and the percentage of Annexin-V/PI positive cells increased gradually from 20 to 70% after 24 h of treatment (FIG. 1).

[8] = test system: HepG2 cells; assay: Cell cycle analysis, PI staining by flow cytometry; format: cell-based, human; conditions: HepG2, 24 h, 5, 10, and 20 mM as printed
Description: For cell cycle distribution studies after treatment with different molar concentrations of 8i and 8k, HepG2 cells were fixed overnight in 70% ethanol, rehydrated in PBS with ribonuclease A (100 μg/ml) and Triton-X (1%) for 30 min at room temperature then PI (at 50 μg/ml) was added and incubated in the dark for 30 min and analyzed with a flow cytometer. Experiments were repeated two times independently.

[9] = test system: caspase-3 in HepG2 cells; assay: Caspase-3 colorimetric activation assay; format: cell-based, human; conditions: HepG2, 5 and 10 μM, 24 h
Description: The activity of caspase-3 was determined using a caspase-3 colorimetric assay kit (Sigma Aldrich) according to the manufacturer's protocol. Briefly, HepG2 cells (1×10^6 cells/well) were treated with 5 and 10 μM of 8i and 8k for 24 h. The cells were harvested and lysed by addition of lysis buffer. Cell lysates were mixed with colorimetric substrate (Ac-DEVD-pNA) and incubated at 37° C. in the dark for 4 h. The absorbance was measured at 405 nm in an ELISA reader. Caspase-3 activity was expressed as the change of the activity compared to the control (FIG. 3).

[10] = test system: MOLT-3; conditions: according to Kittakoop et al.; cited from earlier work
[11] = test system: HepG2; conditions: according to Kittakoop et al.; cited from earlier work
[12] = test system: A549; conditions: according to Kittakoop et al.; cited from earlier work
[13] = test system: HuCCA-1; conditions: according to Kittakoop et al.; cited from earlier work

human ligase I, sequence (P18858 whole entry): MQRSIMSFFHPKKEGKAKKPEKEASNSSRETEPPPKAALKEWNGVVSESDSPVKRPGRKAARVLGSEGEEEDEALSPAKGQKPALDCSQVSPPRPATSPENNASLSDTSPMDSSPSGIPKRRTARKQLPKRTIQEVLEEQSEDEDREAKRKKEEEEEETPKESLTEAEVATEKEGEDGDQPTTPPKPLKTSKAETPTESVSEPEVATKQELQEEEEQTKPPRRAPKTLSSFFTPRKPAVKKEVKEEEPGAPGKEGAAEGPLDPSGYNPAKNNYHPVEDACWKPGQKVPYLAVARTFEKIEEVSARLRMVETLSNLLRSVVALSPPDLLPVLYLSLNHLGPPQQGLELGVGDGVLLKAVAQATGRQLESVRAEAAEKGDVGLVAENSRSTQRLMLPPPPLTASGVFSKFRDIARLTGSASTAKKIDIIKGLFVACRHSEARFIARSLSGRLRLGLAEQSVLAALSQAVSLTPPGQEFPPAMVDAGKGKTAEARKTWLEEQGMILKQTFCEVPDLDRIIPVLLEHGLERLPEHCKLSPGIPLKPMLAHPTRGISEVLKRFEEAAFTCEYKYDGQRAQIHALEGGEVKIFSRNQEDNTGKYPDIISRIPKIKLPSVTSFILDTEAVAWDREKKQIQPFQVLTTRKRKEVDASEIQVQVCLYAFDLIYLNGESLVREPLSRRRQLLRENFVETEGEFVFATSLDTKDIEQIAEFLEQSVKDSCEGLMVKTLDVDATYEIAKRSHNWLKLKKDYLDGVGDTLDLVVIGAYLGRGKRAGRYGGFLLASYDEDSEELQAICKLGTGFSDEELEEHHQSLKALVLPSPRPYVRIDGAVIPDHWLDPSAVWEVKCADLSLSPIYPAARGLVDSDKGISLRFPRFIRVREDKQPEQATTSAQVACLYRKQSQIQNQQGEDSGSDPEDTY

Structure (SMILES) | IC50 [1] [µM] | IC50 [2] [µM] | IC50 [3] [µM] | IC50 [4] [µM] | DNA ligase I / ligation inhibition (in words) [5] | antiproliferative / anticancer activity (in words) [6] | apoptosis induction (in words) [7] | effect on cell cycle progression [8] | caspase-3 activation [9] | IC50 [10] [µM] | cytotoxicity toward HepG2 [11] | cytotoxicity toward A549 [12] | cytotoxicity toward HuCCA-1 [13]
CCCCCCCCCCCCC[N+](C)(CCCCCCCCCCCCC)CC(=O)NC1CCC(=O)N(CC(=O)c2ccccc2)C1=O (stereo not shown) [Compound 8l, {[2,6-Dioxo-1-(2-oxo-2-phenyl-ethyl)-piperidin-3-ylcarbamoyl]-methyl}-Methyl-ditridecyl-ammonium iodide] | > 20 | > 20 | > 20 | > 20 | did not elicit any DNA ligase I inhibition | – | – | – | – | – | – | – | –
CCCCCCCCCCCCCC[N+](C)(CCCCCCCCCCCCCC)CC(=O)NC1CCC(=O)N(CC(=O)c2ccccc2)C1=O (stereo not shown) [Compound 8m, {[2,6-Dioxo-1-(2-oxo-2-phenyl-ethyl)-piperidin-3-ylcarbamoyl]-methyl}Methyl-ditetradecyl-ammonium iodide] | > 20 | > 20 | > 20 | > 20 | did not elicit any DNA ligase I inhibition | – | – | – | – | – | – | – | –
CCCCCCCC[N+](C)(CCCCCCCC)CC(=O)NC1CCC(=O)N(CC(=O)c2ccccc2)C1=O (stereo not shown) [Compound 8g, {[2,6-Dioxo-1-(2-oxo-2-phenyl-ethyl)-piperidin-3-ylcarbamoyl]-methyl}-Methyl-dioctyl-ammonium iodide] | > 20 | 3.43 | 6.37 | 5.48 | – | very good anticancer activity without selectivity | – | – | – | – | – | – | –
CCCCCCCCCC[N+](C)(CCCCCCCCCC)CC(=O)NC1CCC(=O)N(CC(=O)c2ccccc2)C1=O (stereo not shown) [Compound 8i, Bis-decyl-{[2,6-dioxo-1-(2-oxo-2-phenyl-ethyl)-piperidin-3-ylcarbamoyl]-methyl}-methyl-ammonium iodide] | 4.23 | 3.07 | 5.21 | 2.13 | – | very good anticancer activity without selectivity | induced significant amount of apoptosis | did not altered cell cycle progression; also recorded: did not show any impact on cell cycle progression | activated the caspase-3 in HepG2 cells dose dependently; also recorded: activated the casepase-3 in HepG2 cells dose dependently | – | – | – | –
CC(=O)NC1CCC(=O)N(CC(=O)c2ccccc2)C1=O (stereo not shown) [Cordiarimide A] | – | – | – | – | did not show any ligation inhibition | – | – | – | – | 145 | inactive | inactive | inactive
